# Measurements: article PMC6179059, “Pharmacophore-based discovery of 2-(phenylamino)aceto-hydrazides as potent eosinophil peroxidase (EPO) inhibitors” (Journal of Enzyme Inhibition and Medicinal Chemistry, 2018)
# Where two headings read alike, the source gives them in different places.
# Legend:
# [1] = biological target: T1, eosinophil peroxidase (EPO) (Homo sapiens, UniProt P11678); test: Inhibition of EPO-mediated bromination, monochlorodimedone (MCD) assay; type: biochemical
# T1 construct: Eosinophil peroxidase was purified from human white blood cells to a purity index (A413/A280) of at least 1.0; from tissue; host or cells: human white blood cells
# T1 sequence (P11678 251-715 limits assumed): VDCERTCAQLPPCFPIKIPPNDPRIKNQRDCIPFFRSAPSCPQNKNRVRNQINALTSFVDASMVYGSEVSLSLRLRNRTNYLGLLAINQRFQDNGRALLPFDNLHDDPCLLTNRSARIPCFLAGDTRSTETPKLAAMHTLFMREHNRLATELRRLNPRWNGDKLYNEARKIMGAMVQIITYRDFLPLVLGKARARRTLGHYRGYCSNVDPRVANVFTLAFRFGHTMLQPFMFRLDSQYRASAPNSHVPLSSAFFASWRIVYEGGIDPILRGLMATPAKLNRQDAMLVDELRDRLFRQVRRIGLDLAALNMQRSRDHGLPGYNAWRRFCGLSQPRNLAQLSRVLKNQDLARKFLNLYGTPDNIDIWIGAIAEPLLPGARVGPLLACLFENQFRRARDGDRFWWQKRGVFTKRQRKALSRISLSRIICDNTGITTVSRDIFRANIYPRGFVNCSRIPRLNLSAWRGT
# T1 sequence (P11678 140-250 limits assumed): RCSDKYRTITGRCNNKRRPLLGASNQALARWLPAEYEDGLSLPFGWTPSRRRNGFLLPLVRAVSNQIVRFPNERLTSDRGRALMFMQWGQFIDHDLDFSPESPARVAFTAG
# Method: Eosinophil peroxidase was purified from human white blood cells to a purity index (A413/A280) of at least 1.0 as described by Olsen and Little[27]. Its concentration was calculated using ε413 nm 110 000 M^−1 cm−1[28] Hydrogen peroxide, obtained as a 30% solution from Sigma Chemical Co., was diluted and the concentration determined by the absorbance measurement at 240 nm where the extinction coefficient is 39.4 M^−1 cm−1[29]. The other chemicals were also purchased from Sigma Chemical Co. at the highest grade available.
# Halogenation activity was measured spectrophotometrically (Hitachi U-3000) using the monochlorodimedone (MCD) assay. MCD (100 µM) was dissolved in 100 mM phosphate buffer, pH 7.0 containing either bromide (100 mM) or chloride (100 mM) and 20 nM EPO. Upon addition of 100 µM H2O2 MCD was converted into dibromodimedone. […] If necessary the inhibitor stock solutions were prepared in dimethylsulfoxide (DMSO) and stored in dark flasks. Dilution was performed with 100 mM phosphate buffer, pH 7.0, to a final DMSO concentration of maximal 2% (v/v) in all assays. […] The inhibitor concentration that inhibited eosinophil peroxidase-dependent oxidation of MCD by 50% (IC50) was determined by fitting a rectangular hyperbola to the dose-response curve using nonlinear regression (see supplemental information A). All measurements were made in triplicate.
# The 277 selected compounds were tested for inhibition. Monochlorodimedon (MCD) was used to monitor inhibition of EPO-mediated bromination. It turned out that certain compounds such as hydrazides are able to inhibit the EPO. Table 3 lists the IC50 values of four different 4-chlorophenyl derivatives of hydrazides and acetic acid. […] It is apparent that a free terminal amino group, which could act as an […] is essential for a strong inhibition, additional to steric and/or electrochemical properties of these compounds.
# Supplementary Figure S1: IC 50 plots of inhibition of EPO halogenation activity. Figure A- […]
# 20 nM EPO and 200 µM hydrogen peroxide. Reactions were carried out in 100 mM phosphate buffer, pH 7, at 25 °C, Data are means of triplicate experiments. The inhibitory effect of each inhibitor was measured by determining the concentration at which it inhibited oxidation of MCD by 50% (IC50).
# EPO Compound I = system: T2, EPO Compound I; test: Sequential-mixing stopped-flow: reaction of EPO Compound I with inhibitors; type: biochemical, human; settings: for apparent second-order rate constant for Compound I reduction (k3): 100 mM phosphate buffer, pH 7.0, 25 °C; for type of inhibition (reversible / irreversible): concluded from pre-steady-state kinetics
# T2 construct: Eosinophil peroxidase was purified from human white blood cells to a purity index (A413/A280) of at least 1.0; from tissue; host or cells: human white blood cells
# Method: (§1) The sequential stopped-flow apparatus (model SX-18 MV) and the associated computer system were from Applied Photophysics (UK). Because of the inherent instability of Compound I of EPO, the sequential stopped-flow (multi-mixing) technique was used for determination of rate of the reaction of Compound I with different inhibitors. Similar to bovine LPO, human EPO Compound I could be formed with equimolar concentrations of H2O2. In a typical experiment, 2 µM EPO was premixed with 2 µM H2O2 in the aging loop. After 100 ms of delay, the formed Compound I was mixed with increasing concentrations of different inhibitors. Formation and reduction of Compound II by compound 10 was investigated by following the biphasic time trace at 423 nm, where the transition of Compound I to Compound II and further to the […] can be followed. The kinetic traces were fitted using the double-exponential equation of the Applied Photophysics software. At least three determinations (2000 data points) of pseudo-first-order rate constants (kobs) from the first phase of the reaction were performed for each substrate concentration and the mean value was used in the calculation of the second-order rate constants, which were calculated from the slope of the line defined by a plot of kobs versus substrate concentration. Compound 11 was investigated by following the biphasic time traces at 430 nm the maximum absorbance of Compound II. All reactions were followed both at single wavelengths as well as with a diode-array detector. Polychromatic data were analysed with Pro-Kineticist from Applied Photophysics. The program simultaneously fits the kinetic traces at all wavelengths to the proposed reaction mechanism and simulates the spectra of all reactant, product and intermediate species as well as their time-dependent distribution on the reaction coordinate. All measurements were done in 100 mM phosphate buffer, pH 7.0, at 25 °C with a minimum of three repeats.
# In order to determine the mechanism of inhibition of EPO with aceto-hydrazide, acetic acid and thioacetic acid derivatives, a pre-steady-state kinetic study was performed with sequential-mixing stopped-flow spectroscopy. Three redox intermediates are relevant in the enzymology of EPO, namely Compound I, Compound II and Compound III (Figure 3). […] Alternatively, Compound I can also be reduced back by two one-electron reduction steps via Compound II (k3 and k4), Figure 3). The ferric enzyme can be reduced to ferrous enzyme (k5). Compound III can be formed either from ferric enzyme by reversible binding of superoxide (O2^–) (k6) or from the ferrous enzyme by reversible binding of dioxygen (O2) (k7). […]
# (§2) Firstly we investigated compound 10. […] Compound I reduction with compound 10 was measured at 423 nm. […]
# EPO Compound II = system: T3, EPO Compound II; test: Sequential-mixing stopped-flow: reaction/transition of EPO Compound II with inhibitors; type: biochemical, human; settings: pH 7.0, 25 °C; for apparent second-order rate constant for Compound II reduction (k4): 100 mM phosphate buffer
# T3 construct: Eosinophil peroxidase was purified from human white blood cells to a purity index (A413/A280) of at least 1.0; from tissue; host or cells: human white blood cells
# Method: as §1, with “repeats. […]” for “repeats.”
# as §2
# [2] = system: dextran sulfate-induced model of ulcerative colitis; set-up: method as in PMID 15100311; settings: wild-type mice; cited from earlier work
# [3] = training and test set compounds of the pharmacophore model, read-out: EPO IC50
# [4] = as stated in text (abstract, conclusion), read-out: IC50
# [5] = Table 3, 20 nM EPO, 100 mM bromide, 100 µM H2O2, pH 7.0, read-out: IC50 value
# [6] = Table 4, 20 nM EPO, 100 mM bromide, 100 µM H2O2, pH 7.0, read-out: IC50 value
Structure (SMILES),"IC50 [1, 3] [nM]","IC50 [1, 6] [nM]",other results
"NNC(=O)c1nn(-c2ccccc2C(F)(F)F)cc1O [Compound 1, reference compound]",50,,
"Cn1c(=O)[nH]c(=O)c2c1nc(NCCCO)n2CCO [Compound 2, reference compound]",120,,
"NNC(=O)c1ccccc1O [Compound 3, reference compound]",75,,
"NNC(=O)c1nn(-c2ccccc2)cc1O [Compound 4, reference compound]",420,,
"NNc1cc(Cl)ccc1[N+](=O)[O-] [Compound 5, reference compound]",770,,
"CC/N=c1/scc(-c2ccc(O)c(C(N)=O)c2)n1CC [Compound 6, reference compound]",980,,
"C=CCNc1nc2c(c(=O)[nH]c(=O)n2C)n1CC(O)CO (stereo not shown) [Compound 7, reference compound]",1050,,
"COc1ccc2[nH]cc(CCNC(C)=O)c2c1 [Compound 8, reference compound]",2900,,
"NNC(=O)c1ccc(O)cc1O [Compound 9, reference compound]",3520,,
"NNC(=O)CNc1ccc(Cl)cc1 [Compound 10, 2-[(4-chlorophenyl)amino]-acetohydrazide]",,,"apparent second-order rate constant for Compound I reduction (k3) (EPO Compound I): 9.2e+06 M⁻¹ s⁻¹; type of inhibition (reversible / irreversible) (EPO Compound I): irreversible inhibitor; IC50 [1, 4]: 21 nM; rate constant for transition Compound II - Compound III (EPO Compound II; independent of inhibitor concentration): ~1.2 s⁻¹"
"O=C(O)CNc1ccc(Cl)cc1 [Compound 11, 2-[(4-chlorophenyl)amino]-acetic acid]",,,"apparent second-order rate constant for Compound I reduction (k3) (EPO Compound I): 6.9e+06 M⁻¹ s⁻¹; type of inhibition (reversible / irreversible) (EPO Compound I): reversible inhibitor; IC50 [1, 5]: 205 ± 30 nM; apparent second-order rate constant for Compound II reduction (k4) (EPO Compound II): 11000 M⁻¹ s⁻¹"
"NNC(=O)CSc1ccc(Cl)cc1 [Compound 12, 2-(4-chlorophenyl) thio-acetohydrazide]",,,apparent second-order rate constant for Compound II reduction (k4) (EPO Compound II): 140000 M⁻¹ s⁻¹
"NNC(=O)COc1ccc(Cl)cc1 [Compound 13, 2-(4-chlorophenoxy)-aceto-hydrazide]",,,"IC50 [1, 5]: 4900 ± 100 nM"
"NNC(=O)CNc1ccccc1 [Compound 14, PAAH]",,2900 ± 100,
"Cc1ccc(NCC(=O)NN)cc1 [Compound 15, 4-Methyl-PAAH]",,2270 ± 90,
Oc1cccc(O)c1 [resorcinol],,,"disease activity parameters (weight loss, colon shrinkage, colonic bleeding) [2]: diminished"

# The next lines start with results.
"IC50 [1, 3] [nM]","IC50 [1, 6] [nM]",Structure (SMILES),other results
,172 ± 30,"NNC(=O)CNc1ccc(F)cc1 [Compound 16, 4-Fluoro-PAAH]",
,823 ± 80,"NNC(=O)CNc1ccc(Br)cc1 [Compound 17, 4-Bromo-PAAH]",
,290 ± 20,"NNC(=O)CNc1ccc(I)cc1 [Compound 18, 4-Iodo-PAAH]",
,10 ± 5,"NNC(=O)CNc1ccccc1F [Compound 19, 2-[(2-fluorophenyl)amino]-aceto-hydrazide]","IC50 [1, 4]: 10 nM"
,20 ± 6,"NNC(=O)CNc1ccc(F)cc1F [Compound 20, 2,4-di Fluoro-PAAH]",
,34 ± 5,"NNC(=O)CNc1ccc(F)c(Cl)c1 [Compound 21, 3-Chloro-4-fluoro-PAAH]",
,910 ± 40,"NNC(=O)CNc1ccccc1Cl [Compound 22, 2-Chloro-PAAH]",
,823 ± 60,"NNC(=O)CNc1cccc(Br)c1 [Compound 23, 3-Bromo-PAAH]",
